Measured values as given in patent US8344001B2, “Heterocyclic H3 antagonists” (High Point Pharmaceuticals, LLC, priority 2007, dated 2013).

Legend:
Human H3 = Human H3 (Homo sapiens, UniProt Q9Y5N1); assay: Functional assay II, human H3 GTPγS; format: biochemical; details: read-out: hH3-GTPgS) [Ki]
rat = assay: Open cage schedule-fed rat model, food intake; format: in vivo; details: for Feed. Inhib. rat [Response 3 h]: response at 3 h
hERG = hERG (Homo sapiens, UniProt Q12809); assay: Herg-binding (3H-Astemizol); details: probe 3H-astemizole
Sequence of hERG (Q12809 whole entry): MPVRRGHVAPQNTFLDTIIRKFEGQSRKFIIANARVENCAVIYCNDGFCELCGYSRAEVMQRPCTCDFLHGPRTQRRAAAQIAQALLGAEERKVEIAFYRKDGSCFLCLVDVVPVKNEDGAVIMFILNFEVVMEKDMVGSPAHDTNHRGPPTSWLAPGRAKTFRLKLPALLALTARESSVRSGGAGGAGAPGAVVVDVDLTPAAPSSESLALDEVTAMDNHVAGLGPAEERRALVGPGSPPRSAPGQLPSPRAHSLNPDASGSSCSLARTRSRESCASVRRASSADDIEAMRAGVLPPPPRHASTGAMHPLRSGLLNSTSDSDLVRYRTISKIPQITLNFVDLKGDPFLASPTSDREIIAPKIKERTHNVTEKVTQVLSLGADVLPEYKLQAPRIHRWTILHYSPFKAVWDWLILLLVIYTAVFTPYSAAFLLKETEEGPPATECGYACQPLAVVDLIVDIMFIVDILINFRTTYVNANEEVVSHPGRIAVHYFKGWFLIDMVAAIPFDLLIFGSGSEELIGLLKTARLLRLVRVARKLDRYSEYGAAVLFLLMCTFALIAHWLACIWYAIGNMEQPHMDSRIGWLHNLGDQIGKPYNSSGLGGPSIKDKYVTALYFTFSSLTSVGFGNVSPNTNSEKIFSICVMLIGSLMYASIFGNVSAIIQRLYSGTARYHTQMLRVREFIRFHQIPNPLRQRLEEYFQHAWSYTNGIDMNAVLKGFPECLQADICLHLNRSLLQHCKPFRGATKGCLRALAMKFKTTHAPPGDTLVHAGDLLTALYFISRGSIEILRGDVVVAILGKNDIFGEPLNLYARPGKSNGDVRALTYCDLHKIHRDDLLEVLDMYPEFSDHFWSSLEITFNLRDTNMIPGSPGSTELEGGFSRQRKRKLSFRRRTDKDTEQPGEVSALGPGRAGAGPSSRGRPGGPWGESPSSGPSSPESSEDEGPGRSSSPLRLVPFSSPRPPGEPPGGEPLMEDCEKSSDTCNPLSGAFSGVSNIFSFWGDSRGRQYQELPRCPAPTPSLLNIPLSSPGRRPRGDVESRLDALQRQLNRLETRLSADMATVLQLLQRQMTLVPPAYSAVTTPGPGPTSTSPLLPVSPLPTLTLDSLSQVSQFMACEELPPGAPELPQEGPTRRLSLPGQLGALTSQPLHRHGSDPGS

CYP2C19 = CYP2C19 (Homo sapiens, UniProt P33261); assay: CYP2C19 inhibition; format: in vitro ADME; details: read-out: CYP2C19inh [IC50]
Sequence of CYP2C19 (P33261 whole entry): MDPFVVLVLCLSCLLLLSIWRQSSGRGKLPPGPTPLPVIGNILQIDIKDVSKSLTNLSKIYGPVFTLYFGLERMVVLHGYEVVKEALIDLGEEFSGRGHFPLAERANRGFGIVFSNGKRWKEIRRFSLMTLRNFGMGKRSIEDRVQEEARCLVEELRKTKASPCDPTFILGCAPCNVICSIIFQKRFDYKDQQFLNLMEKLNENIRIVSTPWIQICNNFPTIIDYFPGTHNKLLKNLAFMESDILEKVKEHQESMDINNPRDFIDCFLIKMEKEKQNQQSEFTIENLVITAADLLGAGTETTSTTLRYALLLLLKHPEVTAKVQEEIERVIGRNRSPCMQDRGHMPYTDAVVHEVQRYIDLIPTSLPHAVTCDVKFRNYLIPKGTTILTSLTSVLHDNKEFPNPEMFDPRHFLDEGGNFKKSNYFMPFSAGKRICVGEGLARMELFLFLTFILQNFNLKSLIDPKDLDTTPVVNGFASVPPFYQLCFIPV

CYP2C9 = CYP2C9 (Homo sapiens, UniProt P11712); assay: CYP2C9 inhibition; format: in vitro ADME; details: read-out: CYP2C9inh [IC50]
Sequence of CYP2C9 (P11712 whole entry): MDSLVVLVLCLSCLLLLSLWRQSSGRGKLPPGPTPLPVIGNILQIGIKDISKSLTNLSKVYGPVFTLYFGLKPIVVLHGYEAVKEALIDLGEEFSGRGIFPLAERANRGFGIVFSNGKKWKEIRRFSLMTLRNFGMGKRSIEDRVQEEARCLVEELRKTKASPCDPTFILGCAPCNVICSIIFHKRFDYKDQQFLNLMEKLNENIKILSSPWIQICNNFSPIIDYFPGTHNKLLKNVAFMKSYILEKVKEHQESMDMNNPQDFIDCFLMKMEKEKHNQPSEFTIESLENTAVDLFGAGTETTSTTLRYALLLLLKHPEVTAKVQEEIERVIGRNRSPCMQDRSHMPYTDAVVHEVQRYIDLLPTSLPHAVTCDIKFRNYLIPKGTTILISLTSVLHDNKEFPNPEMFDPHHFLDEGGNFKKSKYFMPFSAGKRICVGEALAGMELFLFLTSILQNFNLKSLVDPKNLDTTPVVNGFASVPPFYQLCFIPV

CYP2D6 = CYP2D6 (Homo sapiens, UniProt P10635); assay: CYP2D6 inhibition; format: in vitro ADME; details: read-out: CYP2D6inh [IC50]
Sequence of CYP2D6 (P10635 whole entry): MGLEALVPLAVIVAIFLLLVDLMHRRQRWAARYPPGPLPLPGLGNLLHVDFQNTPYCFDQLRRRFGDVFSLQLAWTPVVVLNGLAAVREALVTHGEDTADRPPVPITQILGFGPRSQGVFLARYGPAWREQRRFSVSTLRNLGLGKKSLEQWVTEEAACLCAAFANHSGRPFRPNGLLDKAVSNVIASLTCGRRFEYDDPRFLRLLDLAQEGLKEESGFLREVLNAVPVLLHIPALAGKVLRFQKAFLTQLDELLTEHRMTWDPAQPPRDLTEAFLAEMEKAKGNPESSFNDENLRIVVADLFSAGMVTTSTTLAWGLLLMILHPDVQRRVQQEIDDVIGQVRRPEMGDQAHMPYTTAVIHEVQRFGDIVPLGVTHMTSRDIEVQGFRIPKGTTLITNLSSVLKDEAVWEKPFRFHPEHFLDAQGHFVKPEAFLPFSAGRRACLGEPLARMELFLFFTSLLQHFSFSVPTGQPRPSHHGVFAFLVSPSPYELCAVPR

CYP3A4 = CYP3A4 (Homo sapiens, UniProt P08684); assay: CYP3A4 inhibition; format: in vitro ADME; details: read-out: CYP3A4inh [IC50]
Sequence of CYP3A4 (P08684 whole entry): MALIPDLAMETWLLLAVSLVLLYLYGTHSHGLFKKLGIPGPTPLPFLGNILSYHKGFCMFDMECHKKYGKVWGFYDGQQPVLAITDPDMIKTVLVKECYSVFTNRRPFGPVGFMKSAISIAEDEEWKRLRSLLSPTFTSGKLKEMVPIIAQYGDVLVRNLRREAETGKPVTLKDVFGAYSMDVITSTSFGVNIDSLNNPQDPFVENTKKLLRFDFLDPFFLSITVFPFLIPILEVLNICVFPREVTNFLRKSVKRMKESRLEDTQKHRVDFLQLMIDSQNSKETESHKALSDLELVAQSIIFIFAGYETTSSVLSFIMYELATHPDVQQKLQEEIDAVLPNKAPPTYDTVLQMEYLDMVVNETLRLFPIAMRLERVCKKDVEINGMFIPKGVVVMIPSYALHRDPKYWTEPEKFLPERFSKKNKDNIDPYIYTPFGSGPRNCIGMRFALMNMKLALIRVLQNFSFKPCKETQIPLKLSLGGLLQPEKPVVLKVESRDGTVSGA

CYP1A = molecular target: T1, CYP1A (Homo sapiens, UniProt P05177); assay: CYP1A inhibition
T1 sequence (P05177 2-516): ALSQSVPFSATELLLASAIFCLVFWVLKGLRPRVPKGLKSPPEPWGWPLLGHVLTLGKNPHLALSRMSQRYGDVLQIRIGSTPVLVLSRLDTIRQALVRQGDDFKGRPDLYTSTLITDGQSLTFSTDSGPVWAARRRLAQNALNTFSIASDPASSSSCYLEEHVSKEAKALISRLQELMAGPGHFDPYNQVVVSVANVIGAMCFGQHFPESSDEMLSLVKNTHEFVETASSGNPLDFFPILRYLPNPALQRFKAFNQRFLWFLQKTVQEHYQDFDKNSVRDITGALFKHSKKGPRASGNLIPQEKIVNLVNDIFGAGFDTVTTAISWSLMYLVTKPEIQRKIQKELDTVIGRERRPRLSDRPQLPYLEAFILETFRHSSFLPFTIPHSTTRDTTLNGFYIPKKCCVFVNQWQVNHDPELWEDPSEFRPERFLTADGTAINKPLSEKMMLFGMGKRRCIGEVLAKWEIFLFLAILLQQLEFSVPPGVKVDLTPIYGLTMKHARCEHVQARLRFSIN

Sequence of Human H3 (Q9Y5N1 whole entry): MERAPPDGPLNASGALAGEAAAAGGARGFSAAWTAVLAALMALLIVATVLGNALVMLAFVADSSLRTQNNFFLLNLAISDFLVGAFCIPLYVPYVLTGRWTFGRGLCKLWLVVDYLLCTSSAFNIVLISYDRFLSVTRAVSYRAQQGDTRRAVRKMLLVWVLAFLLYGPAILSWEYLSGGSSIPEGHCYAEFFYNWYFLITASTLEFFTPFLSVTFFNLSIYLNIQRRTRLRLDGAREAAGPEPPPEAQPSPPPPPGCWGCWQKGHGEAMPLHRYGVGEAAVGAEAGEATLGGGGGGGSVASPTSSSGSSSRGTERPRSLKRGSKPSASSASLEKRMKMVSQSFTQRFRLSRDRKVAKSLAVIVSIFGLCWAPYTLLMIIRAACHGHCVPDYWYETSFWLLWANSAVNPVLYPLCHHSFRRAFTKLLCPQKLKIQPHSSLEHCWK

SMILES | Ki (Human H3) | Open cage schedule-fed rat model, dose 15 mg/kg p.o., food intake at 3 h (rat) | Feed. Inhib. rat [Response 3 h] (rat) | inhibition at 10 µM (hERG) | IC50 (CYP2C19) | IC50 (CYP2C9) | IC50 (CYP2D6) | IC50 (CYP3A4) | IC50 (CYP1A)
CC(C)N1CCC(c2ccc(-c3ccc(C(=O)N4CCCC4)cc3)cn2)CC1.Cl.Cl [Example 11, [4-(1′-Isopropyl-1′,2′,3′,4′,5′,6′-hexahydro-[2,4′]bipyridinyl-5-yl)phenyl]pyrrolidin-1-ylmethanone] | 0.026 µM | 85.9 % of vehicle | 85.9% | 19% | > 25 µM | > 25 µM | > 25 µM | > 25 µM | > 25 µM
Cc1cc(-c2ccc(CC3CCN(C4CCC4)CC3)nc2)ccn1.Cl.Cl [Example 29, 6-(1-Cyclobutylpiperidin-4-ylmethyl)-2′-methyl-[3,4′]bipyridinyl] | 0.0084 µM | 74.4 % of vehicle | 74.4% | 7% | > 25 µM | > 25 µM | > 25 µM | > 25 µM | > 25 µM
CC(C)N1CCN(Cc2ccc(-c3ccc(C(=O)N(C)C)cc3)cn2)CC1.Cl.Cl [Example 42, 4-[6-(4-Isopropylpiperazin-1-ylmethyl)pyridin-3-yl]-N,N-dimethylbenzamide] | 0.017 µM | 87.8 % of vehicle | 87.8% | 7% | > 25 µM | > 25 µM | > 25 µM | > 25 µM | > 25 µM
